What was measured:
Assay type in all cases: in vivo
rice (Oryra sativa) = assay: Test B flooded paddy test; settings: Oryza sativa, 360 h, Flood, 250 g ai/ha; visually evaluated after 13 to 15 d; read-out: Plant response rating, Rice (0 to 100 scale where 0 is no effect and 100 is complete control)
Summary of the method: (§1)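 Flooding to 3 cm over soil accompanied treatment, which consisted of adding compound to the standing water around 2-leaf plants; depth was then maintained. Visual assessment versus controls followed at 13 to 15 d (scale 0–100, 0 meaning no effect).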

[1] = system: barnyardgrass (Echinochloa crus-galli); assay: Test B flooded paddy test; settings: Echinochloa crus-galli, 360 h, Flood, 250 g ai/ha; visually evaluated after 13 to 15 d; read-out: Plant response rating, Barnyardgrass (0 to 100 scale where 0 is no effect and 100 is complete control)
Summary of the method: as §1

[2] = system: sedge, umbrella (small-flower umbrella sedge, Cyperus difformis); assay: Test B flooded paddy test; settings: Cyperus difformis, 360 h, Flood, 250 g ai/ha; visually evaluated after 13 to 15 d; read-out: Plant response rating, Sedge, Umbrella (0 to 100 scale where 0 is no effect and 100 is complete control)
Summary of the method: as §1

[3] = system: ducksalad (Heteranthera limosa); assay: Test B flooded paddy test; settings: Heteranthera limosa, 360 h, Flood, 250 g ai/ha; visually evaluated after 13 to 15 d; read-out: Plant response rating, Ducksalad (0 to 100 scale where 0 is no effect and 100 is complete control)
Summary of the method: as §1

[4] = system: barnyardgrass (Echinochloa crus-galli); assay: Test A preemergence; settings: Echinochloa crus-galli, pre-emergence, 240 h, Preemergence
Summary of the method: (§2)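 Seeded soil received test chemicals as a preemergence directed spray, and seedlings at one to two leaves, 2–10 cm tall, received them postemergence, in a non-phytotoxic, surfactant-containing solvent mixture. Pots were held in a greenhouse for approximately 10 d, then rated for injury from 0, no effect, to 100, complete control.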

[5] = system: giant foxtail (Setaria faberii); assay: Test A preemergence; settings: Setaria faberi, pre-emergence, 240 h, Preemergence
Summary of the method: as §2

Kochia (Kochia scoparia) [6] = assay: Test A preemergence; settings: Bassia scoparia, pre-emergence, 240 h, Preemergence
Summary of the method: as §2

[7] = system: ragweed (common ragweed, Ambrosia elatior); assay: Test A preemergence; settings: Ambrosia artemisiifolia, pre-emergence, 240 h, Preemergence
Summary of the method: as §2

[8] = system: ryegrass, Italian (Italian ryegrass, Lolium multiflorum); assay: Test A preemergence; settings: Lolium multiflorum, pre-emergence, 240 h, Preemergence
Summary of the method: as §2

[9] = system: pigweed (Amaranthus retroflexus); assay: Test A preemergence; settings: Amaranthus retroflexus, pre-emergence, 240 h, Preemergence
[10] = system: blackgrass (Alopecurus myosuroides); assay: Test A postemergence; settings: Alopecurus myosuroides, post-emergence, 240 h, Postemergence, read-out: Blackgrass plant response rating (0 to 100 scale)
Summary of the method: as §2

[11] = system: wheat (Triticum aestivum); assay: Test A postemergence; settings: Triticum aestivum, post-emergence, 240 h, Postemergence, read-out: Wheat plant response rating (0 to 100 scale)
Summary of the method: as §2

corn (Zea mays) = assay: Test A postemergence; settings: Zea mays, post-emergence, 240 h, Postemergence, read-out: Corn plant response rating (0 to 100 scale)
Summary of the method: as §2

[12] = system: barnyardgrass (Echinochloa crus-galli); assay: Test A postemergence; settings: Echinochloa crus-galli, post-emergence, 240 h, Postemergence
Summary of the method: as §2

[13] = system: giant foxtail (Setaria faberii); assay: Test A postemergence; settings: Setaria faberi, post-emergence, 240 h, Postemergence, read-out: Foxtail, Giant plant response rating (0 to 100 scale)
Summary of the method: as §2

Kochia (Kochia scoparia) [14] = assay: Test A postemergence; settings: Bassia scoparia, post-emergence, 240 h, Postemergence, read-out: Kochia plant response rating (0 to 100 scale)
Summary of the method: as §2

[15] = system: ragweed (common ragweed, Ambrosia elatior); assay: Test A postemergence; settings: Ambrosia artemisiifolia, post-emergence, 240 h, Postemergence, read-out: Ragweed plant response rating (0 to 100 scale)
Summary of the method: as §2

[16] = system: Galium (catchweed bedstraw, Galium aparine); assay: Test A postemergence; settings: Galium, post-emergence, 240 h, Postemergence, read-out: Galium plant response rating (0 to 100 scale)
Summary of the method: as §2

[17] = system: ryegrass, Italian (Italian ryegrass, Lolium multiflorum); assay: Test A postemergence; settings: Lolium multiflorum, post-emergence, 240 h, Postemergence, read-out: Ryegrass, Italian plant response rating (0 to 100 scale)
Summary of the method: as §2

[18] = system: pigweed (Amaranthus retroflexus); assay: Test A postemergence; settings: Amaranthus retroflexus, post-emergence, 240 h, Postemergence, read-out: Pigweed plant response rating (0 to 100 scale)
Summary of the method: as §2

[19] = 125 g ai/ha, visual rating about 10 d after treatment
[20] = 31 g ai/ha, 0 is no effect, 100 is complete control

Work on `Cc1ccc([C@H]2CN(C)C(=O)[C@@H]2C(=O)Nc2cccc(F)n2)cc1` [Compound 1375] yielded a pest or weed control at 250 g/ha (rice (Oryra sativa)) of 0%, a pest or weed control at 250 g/ha [1] of 70% and a pest or weed control at 250 g/ha [2] of 0%. It also gave a pest or weed control at 250 g/ha [3] of 95%, a pest or weed control at 31 g/ha ([4]; 31 g ai/ha, 0 to 100 scale where 0 is no effect and 100 is complete control, read-out: Barnyardgrass plant response rating) of 90% and a pest or weed control at 125 g/ha ([4]; 125 g ai/ha, 0 to 100 scale (0 no effect, 100 complete control), read-out: Plant response rating, Barnyardgrass) of 100%. For the same compound, the pest or weed control at 31 g/ha ([5]; 31 g ai/ha, 0 to 100 scale where 0 is no effect and 100 is complete control, read-out: Foxtail, Giant plant response rating) was 90%, the pest or weed control at 125 g/ha ([5]; 125 g ai/ha, 0 to 100 scale (0 no effect, 100 complete control), read-out: Plant response rating, Foxtail, Giant) was 100% and the pest or weed control at 31 g/ha (Kochia (Kochia scoparia) [6]; 31 g ai/ha, 0 to 100 scale where 0 is no effect and 100 is complete control, read-out: Kochia plant response rating) was 50%. It also gave a pest or weed control at 125 g/ha (Kochia (Kochia scoparia) [6]; 125 g ai/ha, 0 to 100 scale (0 no effect, 100 complete control), read-out: Plant response rating, Kochia) of 70%, a pest or weed control at 31 g/ha ([7]; 31 g ai/ha, 0 to 100 scale where 0 is no effect and 100 is complete control, read-out: Ragweed plant response rating) of 40% and a pest or weed control at 125 g/ha ([7]; 125 g ai/ha, 0 to 100 scale (0 no effect, 100 complete control), read-out: Plant response rating, Ragweed) of 70%. For the same compound, the pest or weed control at 31 g/ha ([8]; 31 g ai/ha, 0 to 100 scale where 0 is no effect and 100 is complete control, read-out: Ryegrass, Italian plant response rating) was 0%, the pest or weed control at 125 g/ha ([8]; 125 g ai/ha, 0 to 100 scale (0 no effect, 100 complete control), read-out: Plant response rating, Ryegrass, Italian) was 70% and the pest or weed control at 31 g/ha ([9]; 31 g ai/ha, 0 to 100 scale where 0 is no effect and 100 is complete control, read-out: Pigweed plant response rating) was 0%. For the same compound, the pest or weed control at 125 g/ha ([9]; 125 g ai/ha, 0 to 100 scale (0 no effect, 100 complete control), read-out: Plant response rating, Pigweed) was 0%, the pest or weed control at 125 g/ha [10, 19] was 40% and the pest or weed control at 31 g/ha [10, 20] was 0%. It also gave a plant injury at 125 g/ha [11, 19] of 30%, a plant injury at 31 g/ha [11, 20] of 0% and a plant injury at 125 g/ha (corn (Zea mays); [19]) of 30%. The plant injury at 31 g/ha (corn (Zea mays); [20]) was 0%, the pest or weed control at 125 g/ha ([12]; 125 g ai/ha, visual rating about 10 d after treatment, read-out: Barnyardgrass plant response rating (0 to 100 scale, 0 no effect, 100 complete control)) was 100% and the pest or weed control at 31 g/ha ([12]; 31 g ai/ha, 0 is no effect, 100 is complete control, read-out: Barnyardgrass plant response rating (0 to 100 scale)) was 70%. It also gave a pest or weed control at 125 g/ha [13, 19] of 90%, a pest or weed control at 31 g/ha [13, 20] of 70% and a pest or weed control at 125 g/ha (Kochia (Kochia scoparia) [14]; [19]) of 50%. It also gave a pest or weed control at 31 g/ha (Kochia (Kochia scoparia) [14]; [20]) of 30%, a pest or weed control at 125 g/ha [15, 19] of 20% and a pest or weed control at 31 g/ha [15, 20] of 0%. It also gave a pest or weed control at 125 g/ha [16, 19] of 50%, a pest or weed control at 31 g/ha [16, 20] of 20% and a pest or weed control at 125 g/ha [17, 19] of 20%. It also gave a pest or weed control at 31 g/ha [17, 20] of 0%, a pest or weed control at 125 g/ha [18, 19] of 0% and a pest or weed control at 31 g/ha [18, 20] of 0%.

Reference: patent publication US12077503B2, “Substituted cyclic amides and their use as herbicides” (FMC CORPORATION, priority 2015, dated 2024)
